Laboratory results from PubChem BioAssay AID2060894 (Molecular Pharmacology Branch, DTP, NCI, 2025).

Test system: K12877-001-R-J1-PDC complex spheroid viability
Experiment: Anticancer human tumor K12877-001-R-J1-PDC patient-derived lung adenocarcinoma cell line growth inhibition [RAS]
Conditions: for IC50: curve of first compound; for viability, T/C: stronger effect = lower value
In short: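 Multi-cell-type spheroids: tumor cells plus HUVEC endothelial cells and mesenchymal stem cells. RAS-pathway inhibitors were combined with targeted agents, each dosed in half-log steps down from clinical Cmax, or from 10 microM when Cmax was unknown.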

[1] = second compound 0.00316 µM, first compound 0.00316 µM
[2] = second compound 0.00316 µM, first compound 0.01 µM
[3] = second compound 0.00316 µM, first compound 0.0316 µM
[4] = second compound 0.00316 µM, first compound 0.1 µM
[5] = second compound 0.00316 µM, first compound 0.316 µM
[6] = second compound 0.00316 µM, first compound 1 µM
[7] = second compound 0.01 µM, first compound 0.00316 µM
[8] = second compound 0.01 µM, first compound 0.01 µM
[9] = second compound 0.01 µM, first compound 0.0316 µM
[10] = second compound 0.01 µM, first compound 0.1 µM
[11] = second compound 0.01 µM, first compound 0.316 µM
[12] = second compound 0.01 µM, first compound 1 µM
[13] = second compound 0.0316 µM, first compound 0.00316 µM
[14] = second compound 0.0316 µM, first compound 0.01 µM
[15] = second compound 0.0316 µM, first compound 0.0316 µM
[16] = second compound 0.0316 µM, first compound 0.1 µM
[17] = second compound 0.0316 µM, first compound 0.316 µM
[18] = second compound 0.0316 µM, first compound 1 µM
[19] = second compound 0.1 µM, first compound 0.00316 µM
[20] = second compound 0.1 µM, first compound 0.01 µM
[21] = second compound 0.1 µM, first compound 0.0316 µM
[22] = second compound 0.1 µM, first compound 0.1 µM
[23] = second compound 0.1 µM, first compound 0.316 µM
[24] = second compound 0.1 µM, first compound 1 µM
[25] = second compound 0.316 µM, first compound 0.00316 µM
[26] = second compound 0.316 µM, first compound 0.01 µM
[27] = second compound 0.316 µM, first compound 0.0316 µM
[28] = second compound 0.316 µM, first compound 0.1 µM
[29] = second compound 0.316 µM, first compound 0.316 µM
[30] = second compound 0.316 µM, first compound 1 µM
[31] = second compound 1 µM, first compound 0.00316 µM
[32] = second compound 1 µM, first compound 0.01 µM
[33] = second compound 1 µM, first compound 0.0316 µM
[34] = second compound 1 µM, first compound 0.1 µM
[35] = second compound 1 µM, first compound 0.316 µM
[36] = second compound 1 µM, first compound 1 µM
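Note: spheroids exposed to agents for one week before readout.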
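Throughout, for viability, T/C: tumour cells co-cultured with HUVEC and mesenchymal stem cells in spheroids.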

Molecule `C=CC(=O)Nc1cc(Nc2nccc(-c3cn(C)c4ccccc34)n2)c(OC)cc1N(C)CCN(C)C` + C=CC(=O)N1CCN(c2nc(OCC3CCCN3C)nc3c(F)c(-c4nc(N)cc(C)c4C(F)(F)F)c(Cl)cc23)C(C)C1 has an IC50 (second compound 0.00316 µM) greater than 1 µM, an IC50 (second compound 0.01 µM) greater than 1 µM and an IC50 (second compound 0.0316 µM) greater than 1 µM. It also gave an IC50 (second compound 0.1 µM) greater than 1 µM, an IC50 (second compound 0.316 µM) greater than 1 µM and an IC50 (second compound 1 µM) greater than 1 µM. The viability, T/C [1] was 106%, the viability, T/C [2] was 98.8% and the viability, T/C [3] was 98.7%. For the same molecule, the viability, T/C [4] was 100%, the viability, T/C [5] was 101% and the viability, T/C [6] was 83.8%. It also gave a viability, T/C [7] of 104%, a viability, T/C [8] of 95% and a viability, T/C [9] of 103%. For the same molecule, the viability, T/C [10] was 96.2%, the viability, T/C [11] was 92.7% and the viability, T/C [12] was 82.6%. It also gave a viability, T/C [13] of 95.8%, a viability, T/C [14] of 93.1% and a viability, T/C [15] of 88.3%. It also gave a viability, T/C [16] of 90.7%, a viability, T/C [17] of 79.6% and a viability, T/C [18] of 80.1%. It also gave a viability, T/C [19] of 93.6%, a viability, T/C [20] of 88.1% and a viability, T/C [21] of 88.9%. For the same molecule, the viability, T/C [22] was 88.1%, the viability, T/C [23] was 76.2% and the viability, T/C [24] was 70.8%. It also gave a viability, T/C [25] of 90.8%, a viability, T/C [26] of 94.1% and a viability, T/C [27] of 82.3%. The viability, T/C [28] was 89.1%, the viability, T/C [29] was 79.8% and the viability, T/C [30] was 72.6%. For the same molecule, the viability, T/C [31] was 86.5%, the viability, T/C [32] was 91.8% and the viability, T/C [33] was 83.6%. It also gave a viability, T/C [34] of 76.9%, a viability, T/C [35] of 76.6% and a viability, T/C [36] of 73.5%.

`O=C(c1ccc(F)c(F)c1Nc1ccc(I)cc1F)N1CC(O)([C@@H]2CCCCN2)C1` + C=CC(=O)N1CCN(c2nc(OCC3CCCN3C)nc3c(F)c(-c4nc(N)cc(C)c4C(F)(F)F)c(Cl)cc23)C(C)C1 was tested, and the IC50 (second compound 0.00316 µM) was greater than 1 µM, the IC50 (second compound 0.01 µM) was greater than 1 µM and the IC50 (second compound 0.0316 µM) was greater than 1 µM. For the same molecule, the IC50 (second compound 0.1 µM) was greater than 1 µM, the IC50 (second compound 0.316 µM) was greater than 1 µM and the IC50 (second compound 1 µM) was greater than 1 µM. For the same molecule, the viability, T/C [1] was 104%, the viability, T/C [2] was 103% and the viability, T/C [3] was 89.5%. The viability, T/C [4] was 91.7%, the viability, T/C [5] was 72.2% and the viability, T/C [6] was 54.5%. It also gave a viability, T/C [7] of 94.5%, a viability, T/C [8] of 95% and a viability, T/C [9] of 78.9%. The viability, T/C [10] was 90.7%, the viability, T/C [11] was 68.1% and the viability, T/C [12] was 58.3%. For the same molecule, the viability, T/C [13] was 93%, the viability, T/C [14] was 85.2% and the viability, T/C [15] was 77.5%. It also gave a viability, T/C [16] of 87.6%, a viability, T/C [17] of 71.1% and a viability, T/C [18] of 66.4%. It also gave a viability, T/C [19] of 85.2%, a viability, T/C [20] of 89.3% and a viability, T/C [21] of 83.7%. It also gave a viability, T/C [22] of 82.2%, a viability, T/C [23] of 72.4% and a viability, T/C [24] of 55.4%. It also gave a viability, T/C [25] of 85.7%, a viability, T/C [26] of 83.3% and a viability, T/C [27] of 84.7%. It also gave a viability, T/C [28] of 89.4%, a viability, T/C [29] of 72.4% and a viability, T/C [30] of 59%. For the same molecule, the viability, T/C [31] was 79.5%, the viability, T/C [32] was 79.3% and the viability, T/C [33] was 78.1%. For the same molecule, the viability, T/C [34] was 103%, the viability, T/C [35] was 75.3% and the viability, T/C [36] was 57.2%.
